Structures can show the parent of a compound that is named as a salt.
biological target: SHP2 (Homo sapiens (Human), UniProt Q06124); test: SHP2 Allosteric Inhibition Assay (DiFMUP prompt fluorescence); type: biochemical; conditions: 0.25 nM SHP2 activated with 0.5 μM peptide IRS1_pY1172(dPEG8)pY1222; substrate DiFMUP 100 μM; 25° C.

| Compound | IC50 [µM] |
| --- | --- |
| CO[C@H]1C[C@@H](N2CCN(c3n[nH]c4nc(N5CCC6(CC5)CO[C@@H](C)[C@H]6N)cnc34)c3ccc(C#N)cc32)C1 [Compound 469] | < 1 |
| CC(=O)N1CC(N2CCN(c3n[nH]c4nc(N5CCC6(CC5)CO[C@@H](C)[C@H]6N)cnc34)c3ccc(C#N)cc32)C1 [Compound 471] | < 1 |
| CNCCN(C)c1n[nH]c2nc(N3CCC(C)(CN)CC3)cnc12 [Compound 474] | ≥ 10 |
| CC1(N)CCN(c2cnc3c(Sc4cc[nH]c(=O)c4Cl)n[nH]c3n2)CC1 [Compound 477, 4-((6-(4-amino-4-methylpiperidin-1-yl)-1H-pyrazolo[3,4-b]pyrazin-3-yl)thio)-3-chloropyridin-2(1H)-one] | < 1 |
| COc1nccc(Sc2n[nH]c3nc(N4CCC(C)(N)CC4)cnc23)c1Cl [Compound 479, 1-(3-((3-chloro-2-methoxypyridin-4-yl)thio)-1H-pyrazolo[3,4-b]pyrazin-6-yl)-4-methylpiperidin-4-amine] | < 1 |
| N[C@@H]1COCC12CCN(c1cnc3c(Sc4cccnc4C(F)(F)F)n[nH]c3n1)CC2 [Compound 483, (S)-8-(3-((2-(trifluoromethyl)pyridin-3-yl)thio)-1H-pyrazolo[3,4-b]pyrazin-6-yl)-2-oxa-8-azaspiro[4.5]decan-4-amine] | < 1 |
| CC1(N)CCN(c2cnc3c(Sc4ccncc4)n[nH]c3n2)CC1 [Compound 486, 4-methyl-1-(3-(pyridin-4-ylthio)-1H-pyrazolo[3,4-b]pyrazin-6-yl)piperidin-4-amine] | < 1 |
| CC(=O)N1CCCC(Sc2n[nH]c3nc(N4CCC(C)(N)CC4)cnc23)C1 (centres unmarked) [Compound 488, 1-(3-((6-(4-amino-4-methylpiperidin-1-yl)-1H-pyrazolo[3,4-b]pyrazin-3-yl)thio)piperidin-1-yl)ethan-1-one] | ≥ 10 |
| CC1(N)CCN(c2cnc3c(SC4CCCNC4)n[nH]c3n2)CC1 (centres unmarked) [Compound 492, 4-methyl-1-(3-(piperidin-3-ylthio)-1H-pyrazolo[3,4-b]pyrazin-6-yl)piperidin-4-amine] | ≥ 10 |
| COC(=O)CCc1ncccc1Nc1n[nH]c2nc(N3CCC(C)(N)CC3)cnc12 [Compound 495, methyl 3-[3-[[6-(4-amino-4-methyl-1-piperidyl)-1H-pyrazolo[3,4-b]pyrazin-3-yl]amino]-2-pyridyl]propanoate] | 1 to 10 |
| CC1(N)CCN(c2cnc3c(Sc4cccn5ccnc45)n[nH]c3n2)CC1 [Compound 496, 1-(3-(imidazo[1,2-a]pyridin-8-ylthio)-1H-pyrazolo[3,4-b]pyrazin-6-yl)-4-methylpiperidin-4-amine hydrochloride] | < 1 |
| CC1(CN)CCN(c2cnc3c(Nc4ccnc(Cl)c4Cl)n[nH]c3n2)C1 (centres unmarked) [Compound 499, 6-(3-(Aminomethyl)-3-methylpyrrolidin-1-yl)-N-(2,3-dichloropyridin-4-yl)-1H-pyrazolo[3,4-b]pyrazin-3-amine] | < 1 |
| CC1(CN)CCN(c2cnc3c(Nc4ccnc(Cl)c4Cl)n[nH]c3n2)CC1 [Compound 500, 6-(4-(Aminomethyl)-4-methylpiperidin-1-yl)-N-(2,3-dichloropyridin-4-yl)-1H-pyrazolo[3,4-b]pyrazin-3-amine hydrochloride] | < 1 |
| Cn1nc(Oc2ccnc(Cl)c2Cl)c2ncc(N3CCC(C)(CN)CC3)nc21 [Compound 501, (1-(3-((2,3-dichloropyridin-4-yl)oxy)-1-methyl-1H-pyrazolo[3,4-b]pyrazin-6-yl)-4-methylpiperidin-4-yl)methanamine] | ≥ 10 |
| CC1(N)CCN(c2cnc3c(Oc4ncccc4Cl)n[nH]c3n2)CC1 [Compound 502, 1-(3-((3-chloropyridin-2-yl)oxy)-1H-pyrazolo[3,4-b]pyrazin-6-yl)-4-methylpiperidin-4-amine dihydrochloride] | < 1 |
| Cc1nccc(Oc2n[nH]c3nc(N4CCC(C)(CN)CC4)cnc23)c1Cl [Compound 504, (1-(3-((3-chloro-2-methylpyridin-4-yl)oxy)-1H-pyrazolo[3,4-b]pyrazin-6-yl)-4-methylpiperidin-4-yl)methanamine] | < 1 |
| CC1(CN)CCN(c2cnc3c(Oc4ccc5[nH]ccc5c4)n[nH]c3n2)CC1 [Compound 505, (1-(3-((1H-indol-5-yl)oxy)-1H-pyrazolo[3,4-b]pyrazin-6-yl)-4-methylpiperidin-4-yl)methanamine] | 1 to 10 |
| Cn1cc(-c2nccc(Oc3n[nH]c4nc(N5CCC(C)(CN)CC5)cnc34)c2Cl)cn1 [Compound 506, (1-(3-((3-chloro-2-(1-methyl-1H-pyrazol-4-yl)pyridin-4-yl)oxy)-1H-pyrazolo[3,4-b]pyrazin-6-yl)-4-methylpiperidin-4-yl)methanamine] | < 1 |
| CC1(N)CCN(c2cnc3c(Oc4cnccc4N)n[nH]c3n2)CC1 [Compound 507, 3-((6-(4-Amino-4-methylpiperidin-1-yl)-1H-pyrazolo[3,4-b]pyrazin-3-yl)oxy)pyridin-4-amine hydrochloride] | ≥ 10 |
| CC1(N)CCN(c2cnc3c(Oc4cccnc4N)n[nH]c3n2)CC1 [Compound 508, 3-((6-(4-Amino-4-methylpiperidin-1-yl)-1H-pyrazolo[3,4-b]pyrazin-3-yl)oxy)pyridin-2-amine hydrochloride] | 1 to 10 |
| CC1(N)CCN(c2cnc3c(Oc4cnccc4Cl)n[nH]c3n2)CC1 [Compound 509, 1-(3-((4-Chloropyridin-3-yl)oxy)-1H-pyrazolo[3,4-b]pyrazin-6-yl)-4-methylpiperidin-4-amine hydrochloride] | 1 to 10 |
| CC1(N)CCN(c2cnc3c(Oc4cccnc4Cl)n[nH]c3n2)CC1 [Compound 510, 1-(3-((2-chloropyridin-3-yl)oxy)-1H-pyrazolo[3,4-b]pyrazin-6-yl)-4-methylpiperidin-4-amine] | < 1 |
| C[C@@H]1OCC2(CCN(c3cnc4c(Oc5ccnc(Cl)c5Cl)n[nH]c4n3)CC2)[C@@H]1N [Compound 512, (3S,4S)-8-(3-((2,3-dichloropyridin-4-yl)oxy)-1H-pyrazolo[3,4-b]pyrazin-6-yl)-3-methyl-2-oxa-8-azaspiro[4.5]decan-4-amine] | < 1 |
| CC1(CN)CCN(c2cnc3c(Sc4ccnc5[nH]ccc45)n[nH]c3n2)CC1 [Compound 515, (1-(3-((1H-pyrrolo[2,3-b]pyridin-4-yl)thio)-1H-pyrazolo[3,4-b]pyrazin-6-yl)-4-methylpiperidin-4-yl)methanamine] | < 1 |

The remaining lines, values ahead:

| IC50 [µM] | Compound |
| --- | --- |
| < 1 | CO[C@H]1C[C@H](N2CCN(c3n[nH]c4nc(N5CCC6(CC5)CO[C@@H](C)[C@H]6N)cnc34)c3ccc(C#N)cc32)C1 [Compound 470] |
| 1 to 10 | CC1(N)CCN(c2cnc3c(NCc4ccccc4)n[nH]c3n2)CC1 [Compound 473, 6-(4-amino-4-methyl-1-piperidyl)-N-benzyl-1H-pyrazolo[3,4-b]pyrazin-3-amine] |
| 1 to 10 | CC1(N)CCN(c2cnc3c(Sc4ccc[nH]c4=O)n[nH]c3n2)CC1 [Compound 475, 3-((6-(4-amino-4-methylpiperidin-1-yl)-1H-pyrazolo[3,4-b]pyrazin-3-yl)thio)pyridin-2(1H)-one] |
| < 1 | CC1(N)CCN(c2cnc3c(Sc4cccnc4C(=O)O)n[nH]c3n2)CC1 [Compound 482] |
| < 1 | Cn1ccc(Sc2n[nH]c3nc(N4CCC(C)(N)CC4)cnc23)c(Cl)c1=O [Compound 484, 4-((6-(4-amino-4-methylpiperidin-1-yl)-1H-pyrazolo[3,4-b]pyrazin-3-yl)thio)-3-chloro-1-methylpyridin-2(1H)-one] |
| < 1 | NCC1(F)CCN(c2cnc3c(Sc4ccccc4Cl)n[nH]c3n2)CC1 [Compound 485, (1-(3-((2-chlorophenyl)thio)-1H-pyrazolo[3,4-b]pyrazin-6-yl)-4-fluoropiperidin-4-yl)methanamine] |
| < 1 | CC1(N)CCN(c2cnc3c(Sc4ccnc(N)c4F)n[nH]c3n2)CC1 [Compound 489, 4-((6-(4-amino-4-methylpiperidin-1-yl)-1H-pyrazolo[3,4-b]pyrazin-3-yl)thio)-3-fluoropyridin-2-amine] |
| 1 to 10 | CN(c1ccnc(N)c1)c1n[nH]c2nc(N3CCC(C)(N)CC3)cnc12 [Compound 491, N4-[6-(4-amino-4-methyl-1-piperidyl)-1H-pyrazolo[3,4-b]pyrazin-3-yl]-N4-methyl-pyridine-2,4-diamine] |
| < 1 | CC1(N)CCN(c2cnc3c(Sc4ncnc5ccccc45)n[nH]c3n2)CC1 [Compound 493, 4-methyl-1-(3-(quinazolin-4-ylthio)-1H-pyrazolo[3,4-b]pyrazin-6-yl)piperidin-4-amine] |
| < 1 | CNc1nccc(Sc2n[nH]c3nc(N4CCC(C)(N)CC4)cnc23)c1Cl [Compound 497, 4-((6-(4-amino-4-methylpiperidin-1-yl)-1H-pyrazolo[3,4-b]pyrazin-3-yl)thio)-3-chloro-N-methylpyridin-2-amine hydrochloride] |
| < 1 | CC1(CN)CCN(c2cnc3c(Nc4ccnc(N)c4Cl)n[nH]c3n2)CC1 [Compound 498, N^4-(6-(4-(aminomethyl)-4-methylpiperidin-1-yl)-1H-pyrazolo[3,4-b]pyrazin-3-yl)-3-chloropyridine-2,4-diamine] |
| < 1 | Cn1ccc(Sc2n[nH]c3nc(N4CCC(C)(CN)CC4)cnc23)cc1=O [Compound 511, 4-((6-(4-(aminomethyl)-4-methylpiperidin-1-yl)-1H-pyrazolo[3,4-b]pyrazin-3-yl)thio)-1-methylpyridin-2(1H)-one] |
| < 1 | CC1(CN)CCN(c2cnc3c(Sc4ccn5nccc5c4)n[nH]c3n2)CC1 [Compound 513, (4-methyl-1-(3-(pyrazolo[1,5-a]pyridin-5-ylthio)-1H-pyrazolo[3,4-b]pyrazin-6-yl)piperidin-4-yl)methanamine] |
| < 1 | CC1(CN)CCN(c2cnc3c(Sc4ccc5cccnc5c4Cl)n[nH]c3n2)CC1 [Compound 516, (1-(3-((8-chloroquinolin-7-yl)thio)-1H-pyrazolo[3,4-b]pyrazin-6-yl)-4-methylpiperidin-4-yl)methanamine] |

Reference: US11591336B2 (Relay Therapeutics, Inc., priority 2017, dated 2023)
